Data from article PMC4912613, “A broad analysis of resistance development in the malaria parasite” (Nature Communications, 2016).

Assays:
[1] = system: P. berghei exoerythrocytic forms; test: Liver-stage P. berghei hepatocyte invasion and development assay (luminescence, HepG2); assay type: cell-based, Plasmodium berghei
Summary of the method: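 Duplicate 12-point dose curves, starting at 5 μM or 50 μM, gave EC50s for both parasite and host toxicity. Compound was added to human HepG2 hepatocytes 2 h before infection with freshly dissected P. berghei sporozoites. Surviving liver-stage forms were quantified by luminescence after 48 h.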

[2] = system: DHODH (E182D, parent 3D7); test: Cross-resistance EC50 assay, DHODH; assay type: cell-based; conditions: Plasmodium falciparum, 3D7; SYBR green 72 hour assay; synchronized parasites; 384-well format; DHODH strain
Description: (§1) To evaluate potential overlapping activity against known antimalarial drug targets, we performed dose-response studies with each compound against our assembled set of drug-resistant lines and their corresponding parents, in an asexual blood stage proliferation assay (Table 1). Comparisons were made to the drug-sensitive strain 3D7 when a parent was unavailable (TM90C2A, W2 and Dd2). As laboratories conducted EC50 assays with different strains and protocols, all comparisons were made between assays from the same laboratory and under the same assay conditions. Compounds displaying >5-fold EC50 shifts relative to the parent or sensitive strain were flagged as having potentially non-novel targets. Average fold shifts per strain ranged from 0.82 to 2.34, with a median of 1.23 indicating there was not common resistance to any one resistant clone. No resistance patterns were observed when classifying the compounds based on chemical structure, but this was not surprising given the diversity of compounds chosen. On the other hand, given that these confirmed compounds were derived from larger unconfirmed hit lists to which some filtration criteria may have been applied (for example, elimination of obvious dihydrofolate reductase inhibitors[32]), some[10][11][12][13] pre-existing bias may exist in the set. […]
(§2) Alternatively, a SYBR Green-based proliferation approach was used for the 72-h assay, as previously described. Briefly, a culture of either synchronized or asynchronous parasitized RBCs (0.3% parasitemia and 4% haematocrit) in screening medium (identical to supplemented medium above except no serum was added) was exposed to serial drug dilutions. Plates were incubated at 37 °C and gassed with 93% N2, 4% CO2 and 3% O2 for 72 h. Following incubation, 10 × SYBR Green I (Invitrogen; supplied in 10,000 × concentration) in lysis buffer ([…], 5 mM EDTA, 0.16% Saponin wt per vol and 1.6% Triton X vol per vol) was added to the wells and the plates were incubated overnight at room temperature before plate reading. EC50 assays were repeated three times, taking the average EC50 value from each assay set, and removing any outliers using a single iteration of Grubbs' test, eliminating values with z-scores above the critical z-value (α=0.05). The raw EC50 values for synchronized parasites assayed in a 384-well format are listed in Supplementary Data 4. The raw EC50 values for asynchronous parasites assayed in a 96 or 1536-well format are listed in Supplementary Data 5.
(§3) EC50 values for each strain were compared with those of the corresponding parent strain to determine fold-shift changes and identify resistance. To minimize the cause variance between assays, all comparisons were conducted between strains assayed under identical conditions. A one-way ANOVA followed by a Dunnet's post-test was conducted in GraphPad Prism to identify significant changes between the parent and resistant strain.

[3] = system: ATQ-R5 (cytb F267V, parent 3D7); test: Cross-resistance EC50 assay, ATQ-R5; assay type: cell-based, Plasmodium falciparum; conditions: Plasmodium falciparum, 3D7; SYBR green 72 hour assay; asynchronized parasites; 96-well or 1536-well format; ATQ-R5
Description: as §1, §2, §3

[4] = system: TM90C2A (DHFR, folate pathway; compared with 3D7); test: Cross-resistance EC50 assay, TM90C2A; assay type: cell-based; conditions: Plasmodium falciparum, 48 h, read-out: TM90C2A (3D7 Parent) Average EC50
Summary of the method: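 Comparisons were made strictly within matched assay conditions, with 3D7 standing in where no parent existed. Inhibition came from ³H-hypoxanthine (48 h, 2.0% haematocrit) or SYBR Green (72 h, 4% haematocrit) readouts, three repeats, Grubbs' outlier removal for the latter.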

`CN(C)CCCNCc1ccc(-c2ccc(Cl)c(Cl)c2)o1` [MMV673964] was tested, and the EC50 ([1]; Plasmodium berghei, HepG2, 48 h, P. berghei sporozoites, HepG2, 48 h, read-out: Liver Stage EC50) was 8990 nM, the “EC50 fold shift compared to asexual stage: Liver Stage EC50” value ([1]; liver stage EC50 / 3D7 EC50) was 14.81 and the EC50 [2] was 337 nM. The EC50 [3] was 0.108 µM and the EC50 [4] was 569 nM.
